According to patent publication US7112586B2, “Substituted diamine derivatives useful as motilin antagonists” (Ortho-McNeil Pharmaceutical, Inc., priority 2000, dated 2006):

Assays:
Motilin Receptor = molecular target: T1, Motilin Receptor (Oryctolagus cuniculus, UniProt G1T803); assay: Motilin receptor binding, rabbit colon membranes, 125I porcine motilin; set-up: Rabbit Colon % Inh / inhibition / % Inh (Rabbit colon): dose or concentration left out as unconfirmed; conditions: rabbit colon membranes; for inhibition: read-out: Rabbit Colon % Inh; for IC50: read-out: Rabbit Colon IC50
T1 construct: The muscle tissue was homogenized in 10 volumes of 50 mM Tris-Cl; from tissue; host or cells: rabbit colon smooth muscle, crude membrane homogenate
T1 sequence (G1T803 1-400): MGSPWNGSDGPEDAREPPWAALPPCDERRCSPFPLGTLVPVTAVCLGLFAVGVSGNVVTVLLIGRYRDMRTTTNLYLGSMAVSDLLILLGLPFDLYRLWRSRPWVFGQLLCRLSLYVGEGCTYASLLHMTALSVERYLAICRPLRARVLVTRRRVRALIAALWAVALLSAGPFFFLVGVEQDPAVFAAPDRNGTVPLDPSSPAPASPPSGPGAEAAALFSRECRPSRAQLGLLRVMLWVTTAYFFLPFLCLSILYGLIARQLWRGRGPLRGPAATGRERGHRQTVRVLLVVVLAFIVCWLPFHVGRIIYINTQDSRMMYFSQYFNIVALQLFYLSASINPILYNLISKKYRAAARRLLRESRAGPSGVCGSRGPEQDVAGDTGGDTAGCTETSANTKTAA

[1] = system: motilin induced contraction; assay: Rabbit tissue bath procedure: inhibition of motilin induced contraction of duodenum segments; set-up: species or system New Zealand White rabbit; conditions: 3 nM porcine motilin induced contraction, read-out: Tissues IC50
Procedure: Rabbit Tissue Bath Procedure
One New Zealand White rabbit (Covance) of either sex was euthanized with an IV injection of Sleepaway. The duodenum was quickly excised, the lumen rinsed with saline to clean, and the tissue placed in cold, aerated (95% O2–5% CO2) Tyrodes buffer (NaCl 136.9 mM, KCl 2.7 mM, CaCl2 1.8 mM, MgCl2 1.04 mM, NaH2PO4 0.42 mM, NaHCO3 11.9 mM, Glucose 5.55 mM, pH 7.4). The duodenum, being kept moist at all times, was cleaned of any excess mesenteric tissue, and then cut into 3 cm segments starting at the proximal end. Sixteen tissue segments were usually prepared from each duodenum. These segments were tied on both ends with 3-0 silk suture (Ethicon). One end of the tissue was attached to an S-hook on a custom made glass support rod (Crown Glass Co., Somerville) and the rod plus tissue were placed in a 15 ml isolated tissue bath (Radnoti). The other end of the glass rod was attached to a Grass Force Displacement Transducer FT03. The tissue was maintained in room temperature Tyrodes buffer pH 7.4 and continually gassed with 95% O2— 5% CO2. The tissues were adjusted to 1.0 g resting tension and maintained at that tension throughout the equilibration period. An Ml2 Tissue Bath Computer was used to record and analyze data.
The tissues were washed twice during a 30 minute equilibration period and readjusted to 1 g resting tension as necessary. After equilibration the tissues were challenged with 3 μM Carbachol (Carbamoylcholine Chloride-Sigma). After maximal contraction was attained, the tissues were washed 3 times with Tyrodes. The tissues were allowed a 20 minute resting/equilibration period, during which time they were washed once and readjusted to 1 g resting tension. The tissues were challenged a second time with 3 μM Carbachol, and this contraction was considered as maximal, or 100% contraction. The tissues were washed 3 times, equilibrated for 10 minutes, washed again and readjusted to 1 g resting tension. Vehicle or test compound in 30% DMSO-50 mM HEPES was added directly to the bath and the tissues were incubated for 20 minutes. Test compounds and vehicle were run in duplicate.
The percent inhibition by test compound of the motilin induced contraction was calculated by first determining the ratio of the vehicle contractions with Motilin compared to the Carbachol contractions. This Tissue Adjustment Factor (TAF) was used to determine the value for the potential uninhibited contraction with Motilin for each tissue. The percent inhibition was then determined by dividing the actual Motilin contraction in treated tissues by the potential uninhibited contraction and subtracting this number from 1. IC50 values were determined by graphing results with Kaleidograph graphing program.

Row | Structure (SMILES) | inhibition (Motilin Receptor) | IC50 (Motilin Receptor) | IC50 [1] | Rabbit Colon % Inh (Motilin Receptor)
1 | O=C(Nc1ccccc1)N(CC1CCCC(N(Cc2cccc([N+](=O)[O-])c2)C(=O)C(Cl)(Cl)Cl)C1)c1cccc(OCCN2CCOCC2)c1 (centres unmarked) [compound 65] | 80% | 35 nM | 27 nM | 
2 | O=C(c1ccc(F)cc1)N(CC1CCCC(N(Cc2ccccn2)C(=O)C(Cl)(Cl)Cl)C1)c1cccc(OCCN2CCOCC2)c1 (centres unmarked) [compound 90] | 95% | 490 nM | > 300 nM | 
3 | O=C(c1ccc(F)cc1)N(CC1CCCC(N(Cc2cccc([N+](=O)[O-])c2)C(=O)C(Cl)(Cl)Cl)C1)c1cccc(OCCN2CCOCC2)c1 (centres unmarked) [compound 93] | 100% | 90 nM | 20.5 nM | 
4 | CCN(CC)CCOc1ccc(N(Cc2ccc(F)cc2)C(=O)CCCC(=O)N(CCc2ccccc2)Cc2ccccc2)cc1 [compound 195] |  |  |  | 62%
5 | COc1cccc(CN(Cc2cccc(Cl)c2)C(=O)CCCC(=O)N(Cc2ccc(F)cc2)c2cccc(OCCN3CCCC3)c2)c1 [compound 198] | 100% | 107 nM |  | 
6 | O=C(CCCC(=O)N(Cc1ccc(F)cc1)c1cccc(OCCN2CCCC2)c1)N(CCc1ccccc1)Cc1cc(Cl)cc(Cl)c1 [compound 199] | 91% | 100 nM |  | 
7 | O=C(CCCC(=O)N(Cc1ccc(F)cc1)c1cccc(OCCN2CCCC2)c1)N(CCc1ccccc1)Cc1cccc(C(F)(F)F)c1 [compound 200] | 92% | 41 nM |  | 
8 | O=C(CCCC(=O)N(Cc1ccc(F)cc1)c1cccc(OCCN2CCCC2)c1)N(CCN1CCCC1)Cc1cccc(Cl)c1 [compound 203] | 98% | 240 nM |  | 
9 | O=C(CCCC(=O)N(Cc1ccc(F)cc1)c1cccc(OCCN2CCOCC2)c1)N(CCc1ccccc1)Cc1cccc([N+](=O)[O-])c1 [compound 205] | 76% | 100 nM |  | 
10 | COc1cccc(CN(Cc2cccc(Cl)c2)C(=O)CCCC(=O)N(Cc2ccc(F)cc2)c2cccc(OCCN3CCOCC3)c2)c1 [compound 206] | 60% | 770 nM |  | 
11 | Cc1ccc(OCCN2CCCC2)cc1N(Cc1ccc(F)cc1)C(=O)CCCC(=O)N(CCc1ccccc1)Cc1ccccc1 [compound 207] | 87% | 64 nM |  | 
12 | O=C(c1ccc(F)cc1)N(CC1CCCC(N(Cc2cccc([N+](=O)[O-])c2)C(=O)C(Cl)(Cl)Cl)C1)c1cccc(OCCN2CCCC2)c1 (centres unmarked) [compound 211] | 100% | 14 nM |  | 
13 | O=C(c1ccc(F)cc1)N(CC1CCCC(N(Cc2cccc(Cl)c2)C(=O)C(Cl)(Cl)Cl)C1)c1cccc(OCCN2CCCC2)c1 (centres unmarked) [compound 212] | 89% | 58 nM |  | 
14 | CC(C)(C)C(=O)N(Cc1ccccc1)[C@@H]1CCC[C@H](CN(C(=O)c2ccc(F)cc2)c2cccc(OCCN3CCCC3)c2)C1 [compound 214] |  |  | 24 nM | 
15 | Cc1c(OCCN2CCCC2)cccc1N(Cc1ccc(F)cc1)C(=O)CCCC(=O)N(CCc1ccccc1)Cc1cccc(C(=O)O)c1 [compound 215] | 100% | 84 nM |  | 
16 | O=C(Nc1ccccc1)N(CC1CCCC(N(Cc2cccc(Cl)c2)C(=O)C(Cl)(Cl)Cl)C1)c1cccc(OCCN2CCCC2)c1 (centres unmarked) [compound 223] | 100% | 41 nM |  | 
17 | O=C(Nc1ccccc1)N(CC1CCCC(N(Cc2ccccc2)C(=O)C(Cl)(Cl)Cl)C1)c1cccc(OCCN2CCCC2)c1 (centres unmarked) [compound 224] | 98% | 39 nM |  | 
18 | CC(C)(C)C(=O)N(Cc1ccccc1)[C@@H]1CCC[C@H](CN(C(=O)Nc2ccccc2)c2cccc(OCCN3CCCC3)c2)C1 [compound 225] | 93% | 21 nM |  | 
19 | CCN(CC)CCOc1cccc(N(CC2CCCC(N(Cc3cccc(Cl)c3)C(=O)C(C)(C)C)C2)C(=O)c2ccc(F)cc2)c1 (centres unmarked) [compound 233] | 89% | 170 nM |  | 
20 | Cc1c(OCCN2CCOCC2)cccc1N(Cc1ccc(F)cc1)C(=O)CCCC(=O)N(CCc1ccccc1)Cc1ccccc1 [compound 234] | 86% | 218 nM |  | 
21 | CC(C)(C)C(=O)N(Cc1cccc(Cl)c1)C1CCCC(CN(C(=O)c2ccc(F)cc2)c2cccc(OCCN3CCCCC3)c2)C1 (centres unmarked) [compound 237] | 96% | 168 nM |  | 
22 | O=C(c1ccc(F)cc1)N(CC1CCCC(N(Cc2cccc(Cl)c2)C(=O)C(Cl)(Cl)Cl)C1)c1cccc(OCCN2CCCCC2)c1 (centres unmarked) [compound 238] | 98% | 97 nM |  | 

Row | Structure (SMILES) | inhibition (Motilin Receptor) | IC50 (Motilin Receptor) | IC50 [1] | Rabbit Colon % Inh (Motilin Receptor)
23 | COc1cccc(CC(=O)N(Cc2cccc(Cl)c2)C2CCCC(CN(C(=O)c3ccc(F)cc3)c3cccc(OCCN4CCOCC4)c3)C2)c1 (centres unmarked) [compound 241] |  |  |  | 14%
24 | O=C(c1ccc(F)cc1)N(CC1CCCC(N(Cc2cccc(Cl)c2)C(=O)CCC2CCCC2)C1)c1cccc(OCCN2CCOCC2)c1 (centres unmarked) [compound 242] |  |  |  | 36%
25 | COc1ccc(CC(=O)N(Cc2cccc(Cl)c2)C2CCCC(CN(C(=O)c3ccc(F)cc3)c3cccc(OCCN4CCOCC4)c3)C2)cc1 (centres unmarked) [compound 243] |  |  |  | 35%
26 | O=C(c1ccc(F)cc1)N(CC1CCCC(N(Cc2cccc(Cl)c2)C(=O)Cc2ccccc2)C1)c1cccc(OCCN2CCOCC2)c1 (centres unmarked) [compound 244] |  |  |  | 42%
27 | COc1ccc(CC(=O)N(Cc2cccc(Cl)c2)C2CCCC(CN(C(=O)c3ccc(F)cc3)c3cccc(OCCN4CCOCC4)c3)C2)cc1OC (centres unmarked) [compound 245] |  |  |  | 40%
28 | CC(C)(C)CC(=O)N(Cc1cccc(Cl)c1)C1CCCC(CN(C(=O)c2ccc(F)cc2)c2cccc(OCCN3CCOCC3)c2)C1 (centres unmarked) [compound 246] |  |  |  | 73%
29 | O=C(c1ccc(F)cc1)N(CC1CCCC(N(Cc2cccc(Cl)c2)C(=O)Cc2cccs2)C1)c1cccc(OCCN2CCOCC2)c1 (centres unmarked) [compound 248] | 86% | 760 nM |  | 
30 | O=C(c1ccc(F)cc1)N(CC1CCCC(N(Cc2cccc(Cl)c2)C(=O)Cc2ccc(F)cc2)C1)c1cccc(OCCN2CCOCC2)c1 (centres unmarked) [compound 249] |  |  |  | 22%
31 | CC(C)(C)c1ccc2c(c1)C(=O)N(C1CCCC(CN(C(=O)c3ccc(F)cc3)c3cccc(OCCN4CCOCC4)c3)C1)C2=O (centres unmarked) [compound 250] |  |  |  | 0%
32 | O=C(c1ccc(F)cc1)N(CC1CCCC(N2C(=O)c3ccc(F)cc3C2=O)C1)c1cccc(OCCN2CCOCC2)c1 (centres unmarked) [compound 251] |  |  |  | 0%
33 | O=C(c1ccc(F)cc1)N(CC1CCCC(N2C(=O)c3ccc4ccccc4c3C2=O)C1)c1cccc(OCCN2CCOCC2)c1 (centres unmarked) [compound 252] |  |  |  | 15%
34 | Cc1ccc2c(c1)C(=O)N(C1CCCC(CN(C(=O)c3ccc(F)cc3)c3cccc(OCCN4CCOCC4)c3)C1)C2=O (centres unmarked) [compound 253] |  |  |  | 30%
35 | O=C(c1ccc(F)cc1)N(CC1CCCC(N2C(=O)CC3(CCCC3)CC2=O)C1)c1cccc(OCCN2CCOCC2)c1 (centres unmarked) [compound 254] |  |  |  | 25%
36 | O=C(c1ccc(F)cc1)N(CC1CCCC(N2C(=O)c3cc(Cl)c(Cl)cc3C2=O)C1)c1cccc(OCCN2CCOCC2)c1 (centres unmarked) [compound 255] |  |  |  | 22%
37 | Cc1ccc2c(c1)C(=O)N(C1CCCC(CN(C(=O)c3ccc(F)cc3)c3cccc(OCCN4CCOCC4)c3)C1)C2=O (centres unmarked) [compound 256] |  |  |  | 27%
38 | O=C(c1ccc(F)cc1)N(CC1CCCC(N2C(=O)c3ccccc3C2=O)C1)c1cccc(OCCN2CCOCC2)c1 (centres unmarked) [compound 257] |  |  |  | 0%
39 | CC1(C)CC(=O)N(C2CCCC(CN(C(=O)c3ccc(F)cc3)c3cccc(OCCN4CCOCC4)c3)C2)C(=O)C1 (centres unmarked) [compound 258] |  |  |  | 34%
40 | O=C(c1ccc(F)cc1)N(CC1CCCC(N2C(=O)c3ccc(Br)cc3C2=O)C1)c1cccc(OCCN2CCOCC2)c1 (centres unmarked) [compound 259] |  |  |  | 17%
41 | CC(=O)Oc1ccc2c(c1)C(=O)N(C1CCCC(CN(C(=O)c3ccc(F)cc3)c3cccc(OCCN4CCOCC4)c3)C1)C2=O (centres unmarked) [compound 260] |  |  |  | 30%
42 | O=C(c1ccc(F)cc1)N(CC1CCCC(N2C(=O)c3ccc4ccc(F)cc4c3C2=O)C1)c1cccc(OCCN2CCOCC2)c1 (centres unmarked) [compound 261] |  |  |  | 0%
43 | O=C(c1ccc(F)cc1)N(CC1CCCC(N2C(=O)C3CC3C2=O)C1)c1cccc(OCCN2CCOCC2)c1 (centres unmarked) [compound 262] |  |  |  | 18%
44 | O=C(c1ccc(F)cc1)N(CC1CCCC(N2C(=O)c3c(Cl)ccc(Cl)c3C2=O)C1)c1cccc(OCCN2CCOCC2)c1 (centres unmarked) [compound 263] |  |  |  | 11%
